Eight compounds from PubChem BioAssay (NCI) can be followed below.

Each structure is given as a SMILES string.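 Protocol summary: plate cells (96-well), add compound at 5 concentrations, incubate 48 h, interpolate endpoints linearly. Abbreviation: GI50, concentration required for 50% inhibition of growth. At the TGI there is no net growth.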 Some results are limits rather than exact numbers.

Among the test systems are OVCAR-3 ovarian; HL-60(TB) leukemia; CCRF-CEM leukemia; NCI/ADR-RES ovarian; HOP-92 NSCLC; SF-268 CNS; SNB-19 CNS; 786-0 renal; MOLT-4 leukemia; UO-31 renal.
Common to all, as to test: DTP human tumour cell line panel, 48 h

Regarding `c1cncc(CNc2ccccc2-c2nnc(Nc3ccc4c(c3)OCO4)o2)c1`, the GI50 with OVCAR-3 ovarian was 0.0303 µM; in the experiment with HL-60(TB) leukemia, 0.0259 µM; in the experiment on CCRF-CEM leukemia it was 0.0801 µM; in the experiment with NCI/ADR-RES ovarian, 0.0291 µM; in the experiment on HOP-92 NSCLC, 0.0904 µM; in the experiment on SF-268 CNS, 0.407 µM. Moreover, the GI50 in the experiment on SNB-19 CNS is 0.112 µM; with 786-0 renal it was 0.14 µM; in the experiment on MOLT-4 leukemia it was 0.194 µM; with UO-31 renal it was 0.31 µM. Besides, the concentration for total growth inhibition (TGI) with OVCAR-3 ovarian was 0.0866 µM; in the experiment on HL-60(TB) leukemia, 0.147 µM; in the experiment with CCRF-CEM leukemia, > 100 µM; in the experiment with NCI/ADR-RES ovarian, 0.142 µM; with HOP-92 NSCLC, 28.9 µM; in the experiment on SF-268 CNS it was > 100 µM. In addition, the total growth inhibition concentration (TGI) is > 100 µM in the experiment with SNB-19 CNS, > 90.4 µM with 786-0 renal, > 100 µM with MOLT-4 leukemia and > 100 µM in the experiment on UO-31 renal.

Regarding `Clc1ccc(-c2nc3c(-c4ccc(Cl)cc4)nc(-c4ccccc4)cn3c2-c2ccc(Cl)cc2)cc1`, the GI50 was > 50 µM in the experiment with OVCAR-3 ovarian; > 50 µM with HL-60(TB) leukemia; > 50 µM in the experiment with CCRF-CEM leukemia; > 50 µM in the experiment on NCI/ADR-RES ovarian; 14.9 µM with HOP-92 NSCLC; > 50 µM in the experiment with SF-268 CNS. The GI50 in the experiment with SNB-19 CNS is > 50 µM; in the experiment with 786-0 renal, 46.5 µM; in the experiment with MOLT-4 leukemia it was > 50 µM; with UO-31 renal, > 50 µM. Besides, the total growth inhibition concentration (TGI) in the experiment with OVCAR-3 ovarian is > 50 µM; in the experiment on HL-60(TB) leukemia, > 50 µM; with CCRF-CEM leukemia it was > 50 µM; in the experiment on NCI/ADR-RES ovarian, > 50 µM; with HOP-92 NSCLC it was 37.1 µM; with SF-268 CNS, > 50 µM. For the same compound, the TGI in the experiment with SNB-19 CNS, in the experiment with 786-0 renal, with MOLT-4 leukemia and in the experiment with UO-31 renal was > 50 µM each time.

In the case of `C=C1CC[C@@H]2C(C)(C)[C@@H](O)CC[C@@]2(C)[C@@H]1COc1ccc2ccc(=O)oc2c1`, the GI50 with OVCAR-3 ovarian is 13 µM; in the experiment with NCI/ADR-RES ovarian, 10.5 µM; in the experiment with HOP-92 NSCLC it was 8.62 µM; in the experiment with SF-268 CNS it was 12.2 µM; with SNB-19 CNS, 14.1 µM; with 786-0 renal, 14.8 µM. Besides, the GI50 with MOLT-4 leukemia was 7.22 µM; in the experiment with UO-31 renal it was 10.2 µM. Moreover, the TGI in the experiment on OVCAR-3 ovarian came to 29.1 µM; in the experiment with HL-60(TB) leukemia, 45.6 µM; with CCRF-CEM leukemia, 68.3 µM; in the experiment on NCI/ADR-RES ovarian it was 30.8 µM; with HOP-92 NSCLC, 24.3 µM; with SF-268 CNS, 33.1 µM. The TGI came out at 34.2 µM with SNB-19 CNS, 30.6 µM in the experiment with 786-0 renal, 35.6 µM in the experiment on MOLT-4 leukemia and 22.9 µM in the experiment with UO-31 renal.

With `CSC1=Nc2c(c(C)c(-c3ccccc3)n2COC(CO)CO)C2=NC(=O)C(C)N12` (stereo unspecified), the GI50 was > 100 µM with OVCAR-3 ovarian; 3.69 µM with HL-60(TB) leukemia; > 100 µM in the experiment on CCRF-CEM leukemia; > 100 µM in the experiment with NCI/ADR-RES ovarian; > 100 µM with HOP-92 NSCLC; > 100 µM in the experiment with SF-268 CNS. Besides, the GI50 in the experiment with SNB-19 CNS was > 100 µM; with 786-0 renal, > 100 µM; with MOLT-4 leukemia it was 29.6 µM; in the experiment with UO-31 renal, > 100 µM. For the same compound, the TGI in the experiment with OVCAR-3 ovarian, in the experiment on HL-60(TB) leukemia, in the experiment with CCRF-CEM leukemia, in the experiment with NCI/ADR-RES ovarian, with HOP-92 NSCLC and in the experiment with SF-268 CNS was > 100 µM throughout. For the same compound, the concentration for total growth inhibition (TGI) in the experiment with SNB-19 CNS, in the experiment with 786-0 renal, in the experiment with MOLT-4 leukemia and in the experiment on UO-31 renal was > 100 µM throughout.

`O=C1C2=C(C(=O)c3c(O)ccc(O)c31)N(c1ccc(N3CCOCC3)nc1)Cc1ccccc1O2`: the concentration for 50% growth inhibition (GI50) is 0.227 µM with OVCAR-3 ovarian; 0.17 µM in the experiment with HL-60(TB) leukemia; 0.0778 µM with CCRF-CEM leukemia; 0.401 µM in the experiment with NCI/ADR-RES ovarian; 0.202 µM in the experiment with HOP-92 NSCLC; 1.37 µM in the experiment with SF-268 CNS. For the same compound, the GI50 was 1.45 µM in the experiment on SNB-19 CNS, 0.206 µM in the experiment with 786-0 renal, 0.0872 µM in the experiment on MOLT-4 leukemia and 0.131 µM in the experiment with UO-31 renal. Moreover, the total growth inhibition concentration (TGI) in the experiment on OVCAR-3 ovarian amounted to 0.651 µM; in the experiment with HL-60(TB) leukemia, 0.616 µM; in the experiment with NCI/ADR-RES ovarian, 13 µM; in the experiment on HOP-92 NSCLC it was 0.469 µM; in the experiment on SF-268 CNS, 4.06 µM; in the experiment on SNB-19 CNS it was 3.6 µM. In addition, the values for the concentration for total growth inhibition (TGI) in the experiment with 786-0 renal and in the experiment on UO-31 renal were 0.45 µM and 0.429 µM, respectively.

As for `CCCCCCN(CCCCCC)CCCNc1nccc2ccccc12`, the GI50 was 1.73 µM in the experiment with OVCAR-3 ovarian; 1.77 µM in the experiment on HL-60(TB) leukemia; 2.47 µM with CCRF-CEM leukemia; 1.6 µM with NCI/ADR-RES ovarian; 1.01 µM in the experiment with HOP-92 NSCLC; 2.53 µM with SF-268 CNS. Besides, the GI50 in the experiment on SNB-19 CNS was 2.09 µM; in the experiment on 786-0 renal, 1.81 µM; with MOLT-4 leukemia, 2.56 µM; in the experiment on UO-31 renal, 1.35 µM. Besides, the total growth inhibition concentration (TGI) was 3.55 µM in the experiment with OVCAR-3 ovarian; 4.26 µM in the experiment with HL-60(TB) leukemia; 10.7 µM in the experiment on CCRF-CEM leukemia; 3.37 µM in the experiment with NCI/ADR-RES ovarian; 2.47 µM in the experiment with HOP-92 NSCLC; 8.51 µM in the experiment with SF-268 CNS. In addition, the concentration for total growth inhibition (TGI) in the experiment with SNB-19 CNS worked out at 6.01 µM; in the experiment with 786-0 renal it was 3.98 µM; in the experiment on MOLT-4 leukemia it was 7.71 µM; with UO-31 renal it was 3.04 µM.

Turning to `CCCc1cc(=O)oc2c(C(=O)CC(C)C)c(O)c(CC=C(C)C)c(O)c12`, the GI50 is 3.53 µM in the experiment on OVCAR-3 ovarian; 7.01 µM in the experiment with HL-60(TB) leukemia; 4.97 µM with CCRF-CEM leukemia; 8.6 µM in the experiment on NCI/ADR-RES ovarian; 1.25 µM in the experiment with HOP-92 NSCLC; 11.2 µM in the experiment with SF-268 CNS. Further, the GI50 in the experiment with SNB-19 CNS is 14.5 µM; in the experiment with 786-0 renal it was 10.5 µM; with MOLT-4 leukemia, 11.7 µM; with UO-31 renal, 12.1 µM. Besides, the TGI was > 50 µM with OVCAR-3 ovarian; 22.9 µM with HL-60(TB) leukemia; > 50 µM in the experiment on CCRF-CEM leukemia; 48.1 µM with NCI/ADR-RES ovarian; 4.15 µM with HOP-92 NSCLC; > 50 µM with SF-268 CNS. Also, the concentration for total growth inhibition (TGI) is > 50 µM in the experiment with SNB-19 CNS, 46.2 µM with 786-0 renal, > 50 µM in the experiment on MOLT-4 leukemia and > 50 µM in the experiment with UO-31 renal.

For `CCOP(=O)(CCP(=O)(OCC)OCC)OCC.C[CH2][Sn]([Cl])([Cl])[CH2]C`, the GI50 with OVCAR-3 ovarian is > 84.3 µM; in the experiment on HL-60(TB) leukemia, 56.6 µM; with CCRF-CEM leukemia, 15.5 µM; in the experiment with NCI/ADR-RES ovarian, > 100 µM; with HOP-92 NSCLC it was 19.7 µM; in the experiment on SF-268 CNS, 38.8 µM. For the same compound, the GI50 is 31.2 µM with SNB-19 CNS, 21.7 µM in the experiment on 786-0 renal, 39.9 µM with MOLT-4 leukemia and > 54.2 µM with UO-31 renal. In addition, the TGI in the experiment with OVCAR-3 ovarian was > 100 µM; in the experiment with HL-60(TB) leukemia it was > 95.2 µM; in the experiment on CCRF-CEM leukemia, 50.5 µM; in the experiment with NCI/ADR-RES ovarian it was > 100 µM; in the experiment on HOP-92 NSCLC, 39.2 µM; in the experiment with SF-268 CNS it was > 66.8 µM. Moreover, the TGI is 49.9 µM in the experiment with SNB-19 CNS, 50.2 µM in the experiment with 786-0 renal, > 100 µM in the experiment on MOLT-4 leukemia and > 66.5 µM with UO-31 renal.

What is called GI50 is the concentration giving 50% growth inhibition. Usually TGI stands for the concentration at which net growth stops.
